Data as given in PMC10584170, “Machine learning-based phenotypic imaging to characterise the targetable biology of Plasmodium falciparum male gametocytes for the development of transmission-blocking antimalarials” (PLOS Pathogens, 2023).

Tests used:
[1] = system: P. falciparum female gametocytes; assay: P. falciparum Dual Gamete Formation Assay (PfDGFA), female readout (Pfs25-positive female gametes); assay type: cell-based, Plasmodium falciparum NF54; conditions: for Average inhibition female (%): average of replicates; for % inhibition female (individual replicates) R1: replicate R1; for % inhibition female (individual replicates) R3: replicate R3; for % inhibition female (individual replicates) R4: replicate R4
How it was run: (§1)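 Read-outs are automated image counts of exflagellation centres (brightfield, 10 frames over 1 s) and Pfs25-positive female gametes (Cy3 fluorescence).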

[2] = system: P. falciparum male gametocytes; assay: P. falciparum Dual Gamete Formation Assay (PfDGFA), male readout (exflagellation); assay type: cell-based, Plasmodium falciparum NF54; conditions: for Average inhibition male (%): average of replicates; for % inhibition male (individual replicates) R1: replicate R1; for % inhibition male (individual replicates) R3: replicate R3; for % inhibition male (individual replicates) R4: replicate R4; for Activity: hit = >50% inhibition in male or female readout in at least 3 replicates, 0 = no class assigned
How it was run: as §1

[3] = 2µM, 24h preincubation with gametocytes prior to induction of gametogenesis
[4] = 2µM, 24h preincubation, hits selected on >50% inhibition in the female readout across replicates
[5] = 2µM, 24h preincubation, hits selected on >50% inhibition in the male readout across replicates
[6] = PfDGFA at 2µM, 24h preincubation
[7] = PfDGFA at 2µM, 24h preincubation with gametocytes
[8] = number of replicates with >50% inhibition in the female readout, 2µM
[9] = number of replicates with >50% inhibition in the male readout, 2µM
[10] = 2µM, 24h preincubation with gametocytes
[11] = PfDGFA at 2µM, 24h preincubation with gametocytes prior to induction of gametogenesis
[12] = 2µM, 24h preincubation, number of replicates with >50% inhibition in the female readout
[13] = 2µM, 24h preincubation, number of replicates with >50% inhibition in the male readout

## CCc1nc(N)nc(N)c1CCCOc1ccccc1Cl.Cl [TCMDC-137928]
[1]; [3]
  Average inhibition female (%): 14.6%
  % inhibition female (individual replicates) R1: 20.2%
  % inhibition female (individual replicates) R3: 26.6%
  % inhibition female (individual replicates) R4: 2.3%
[1]; [4]
  HitlevelF: 0
[2]; [3]
  Average inhibition male (%): -0.378%
  % inhibition male (individual replicates) R1: 19.6%
  % inhibition male (individual replicates) R3: 1.0%
  % inhibition male (individual replicates) R4: -29.1%
[2]; [5]
  HitlevelM: 0
[2]; [6]
  Activity: 0

## CCOc1cc2ccccc2cc1CNCCCCCCNCc1cc2ccccc2cc1OCC.CS(=O)(=O)O [TCMDC-137940]
[1]; [3]
  Average inhibition female (%): 10.1%
  % inhibition female (individual replicates) R1: 11.4%
  % inhibition female (individual replicates) R3: 8.9%
  % inhibition female (individual replicates) R4: 5.4%
[1]; [4]
  HitlevelF: 0
[2]; [3]
  Average inhibition male (%): -10.2%
  % inhibition male (individual replicates) R1: -8.8%
  % inhibition male (individual replicates) R3: -9.1%
  % inhibition male (individual replicates) R4: -15.1%
[2]; [5]
  HitlevelM: 0
[2]; [6]
  Activity: 0

## CCOc1c(CNCCCCCCNCc2ccc3ccccc3c2OCC)ccc2ccccc12.CS(=O)(=O)O [TCMDC-137942]
[1]; [7]
  Average inhibition female (%): 35.4%
  % inhibition female (individual replicates) R1: 30.1%
  % inhibition female (individual replicates) R3: 19.1%
  % inhibition female (individual replicates) R4: 50.5%
[1]; [8]
  HitlevelF: 1
[2]; [7]
  Average inhibition male (%): 82.7%
  % inhibition male (individual replicates) R1: 76.8%
  % inhibition male (individual replicates) R3: 64.7%
  % inhibition male (individual replicates) R4: 98.9%
[2]; [9]
  HitlevelM: 4

## CCCc1cc2c3c(N)nc(N)nc3ccc2n1CC [TCMDC-137946]
[1]; [10]
  Average inhibition female (%): 82.6%
  % inhibition female (individual replicates) R1: 82.8%
  % inhibition female (individual replicates) R3: 88.8%
  % inhibition female (individual replicates) R4: 84.8%
[2]; [10]
  Average inhibition male (%): 95.8%
  % inhibition male (individual replicates) R1: 97.3%
  % inhibition male (individual replicates) R3: 96.2%
  % inhibition male (individual replicates) R4: 104.1%

## CCCC(CC)n1ccc2c3c(N)nc(N)nc3ccc21.CS(=O)(=O)O (centres unmarked) [TCMDC-137948]
[1]; [11]
  % inhibition female (individual replicates) R1: -1.7%
  % inhibition female (individual replicates) R3: -3.2%
  % inhibition female (individual replicates) R4: -13.6%
[1]; [6]
  Average inhibition female (%): -8.1%
[2]; [11]
  % inhibition male (individual replicates) R1: 21.2%
  % inhibition male (individual replicates) R3: 21.4%
  % inhibition male (individual replicates) R4: 12.8%
[2]; [6]
  Average inhibition male (%): 22.4%

## CCCC(CCC)n1ccc2c3c(N)nc(N)nc3ccc21.Cl [TCMDC-137949]
[1]; [11]
  % inhibition female (individual replicates) R1: 4.6%
  % inhibition female (individual replicates) R3: 19.1%
  % inhibition female (individual replicates) R4: -10.8%
[1]; [6]
  Average inhibition female (%): 3.5%
[2]; [11]
  % inhibition male (individual replicates) R1: 35.5%
  % inhibition male (individual replicates) R3: 0.4%
  % inhibition male (individual replicates) R4: -40.5%
[2]; [6]
  Average inhibition male (%): 0.9%

## CCCOc1c(CCNCCCCNCCc2ccc3ccccc3c2OCCC)ccc2ccccc12.CS(=O)(=O)O [TCMDC-137950]
[1]; [7]
  Average inhibition female (%): 65.5%
  % inhibition female (individual replicates) R1: 72.1%
  % inhibition female (individual replicates) R3: 62.6%
  % inhibition female (individual replicates) R4: 79.5%
[1]; [8]
  HitlevelF: 3
[2]; [7]
  Average inhibition male (%): 74.1%
  % inhibition male (individual replicates) R1: 87.0%
  % inhibition male (individual replicates) R3: 74.0%
  % inhibition male (individual replicates) R4: 95.7%
[2]; [9]
  HitlevelM: 3

## COc1cc2ccccc2cc1CNCCCCCCNCc1cc2ccccc2cc1OC.CS(=O)(=O)O [TCMDC-137955]
[1]; [3]
  Average inhibition female (%): 14.7%
  % inhibition female (individual replicates) R1: 13.5%
  % inhibition female (individual replicates) R3: -9.9%
  % inhibition female (individual replicates) R4: 5.4%
[1]; [12]
  HitlevelF: 0
[2]; [3]
  Average inhibition male (%): 53.1%
  % inhibition male (individual replicates) R1: 58.5%
  % inhibition male (individual replicates) R3: -7.9%
  % inhibition male (individual replicates) R4: 78.9%
[2]; [13]
  HitlevelM: 3

## Cc1cc2c3c(N)nc(N)nc3ccc2n1C [TCMDC-137957]
[1]; [3]
  Average inhibition female (%): 31.9%
  % inhibition female (individual replicates) R1: 39.3%
  % inhibition female (individual replicates) R3: 32.6%
  % inhibition female (individual replicates) R4: 34.2%
[1]; [12]
  HitlevelF: 0
[2]; [3]
  Average inhibition male (%): 2.4%
  % inhibition male (individual replicates) R1: -0.85%
  % inhibition male (individual replicates) R3: -3.6%
  % inhibition male (individual replicates) R4: 3.4%
[2]; [13]
  HitlevelM: 0

## Nc1nc(N)c2c(ccc3c2ccn3CCCCO)n1 [TCMDC-137959]
[1]; [11]
  % inhibition female (individual replicates) R1: -0.01%
  % inhibition female (individual replicates) R3: -3.7%
  % inhibition female (individual replicates) R4: 2.0%
[1]; [6]
  Average inhibition female (%): -0.9%
[2]; [11]
  % inhibition male (individual replicates) R1: 21.0%
  % inhibition male (individual replicates) R4: -1.8%
[2]; [6]
  Average inhibition male (%): 15.1%

## Nc1nc(N)c2c(ccc3nn(C4CCCC4)cc32)n1 [TCMDC-137960]
[1]; [3]
  Average inhibition female (%): 4.4%
  % inhibition female (individual replicates) R1: 5.0%
  % inhibition female (individual replicates) R3: 5.0%
  % inhibition female (individual replicates) R4: 9.1%
[1]; [4]
  HitlevelF: 0
[2]; [3]
  Average inhibition male (%): -1.6%
  % inhibition male (individual replicates) R1: 13.2%
  % inhibition male (individual replicates) R4: -27.5%
[2]; [5]
  HitlevelM: 0
[2]; [6]
  Activity: 0

## CCCCCCOc1ccc2ccccc2c1CNCCCCCCNCc1c(OCCCCCC)ccc2ccccc12.CS(=O)(=O)O [TCMDC-137963]
[1]; [3]
  Average inhibition female (%): 30.9%
  % inhibition female (individual replicates) R1: 24.3%
  % inhibition female (individual replicates) R3: 23.7%
  % inhibition female (individual replicates) R4: 29.4%
[1]; [12]
  HitlevelF: 0
[2]; [3]
  Average inhibition male (%): 26.5%
  % inhibition male (individual replicates) R1: 35.9%
  % inhibition male (individual replicates) R3: 2.2%
  % inhibition male (individual replicates) R4: 25.6%
[2]; [13]
  HitlevelM: 0

## CC(C)COc1ccc2ccccc2c1CNCCCCCCNCc1c(OCC(C)C)ccc2ccccc12.CS(=O)(=O)O [TCMDC-137972]
[1]; [3]
  Average inhibition female (%): 43.0%
  % inhibition female (individual replicates) R1: 37.9%
  % inhibition female (individual replicates) R3: 36.7%
  % inhibition female (individual replicates) R4: 62.6%
[1]; [12]
  HitlevelF: 1
[2]; [3]
  Average inhibition male (%): 47.1%
  % inhibition male (individual replicates) R1: 41.0%
  % inhibition male (individual replicates) R3: 61.0%
  % inhibition male (individual replicates) R4: 84.0%
[2]; [13]
  HitlevelM: 2

## CN(C)S(=O)(=O)n1ccc2c3c(N)nc(N)nc3ccc21 [TCMDC-137973]
[1]; [3]
  Average inhibition female (%): 12.1%
  % inhibition female (individual replicates) R1: 13.5%
  % inhibition female (individual replicates) R3: 33.5%
  % inhibition female (individual replicates) R4: 1.8%
[1]; [4]
  HitlevelF: 0
[2]; [3]
  Average inhibition male (%): -3.2%
  % inhibition male (individual replicates) R1: 31.1%
  % inhibition male (individual replicates) R3: -3.2%
  % inhibition male (individual replicates) R4: -51.1%
[2]; [5]
  HitlevelM: 0
[2]; [6]
  Activity: 0

## CCCCOc1c(CNCCCCCCNCc2ccc3ccccc3c2OCCCC)ccc2ccccc12.CS(=O)(=O)O [TCMDC-137975]
[1]; [7]
  Average inhibition female (%): 39.1%
  % inhibition female (individual replicates) R1: 52.1%
  % inhibition female (individual replicates) R3: 14.4%
  % inhibition female (individual replicates) R4: 37.6%
[1]; [8]
  HitlevelF: 2
[2]; [7]
  Average inhibition male (%): 78.3%
  % inhibition male (individual replicates) R1: 78.0%
  % inhibition male (individual replicates) R4: 67.8%
[2]; [9]
  HitlevelM: 3
